Earlier results as cited in US20060280691A1 (University of Alberta, priority 2005, published 2006).
Converted amounts (≈) assume the structure as drawn.

Legend:
[1] = test system: Neisseria gonorrhoeae
[2] = test system: Streptococcus pyogenes
[3] = test system: Pseudomonas aeruginosa
[4] = test system: Bacillus anthracis

SMILES: O=C(O)c1cn(C2CC2)c2cc(N3CCNCC3)c(F)cc2c1=O [Ciprofloxacin, ciprofloxacin]
- MIC90 [1]: 4 ng/mL (≈ 0.0121 µM)
- MIC90 [2]: 1 mg/L (≈ 3.02 µM)
- MIC90 [3]: 4 mg/L (≈ 12.1 µM)
- MIC [4]: 1.6 mg/L (≈ 4.83 µM)
